Consider 19 compounds from patent publication EP4813980A1, “EP300/CBP REGULATOR, AND PREPARATION METHOD THEREFOR AND USE THEREOF” (Miracure Biotechnology Limited, priority 2023, dated 2025).

Experiment in all cases: Cell growth inhibition, CellTiter-Glo, 72 h
Holding throughout (format): cell-based

One experiment relates to MM1S cells. Particulars: Homo sapiens, MM1.S, 72 h culture, mean of N=2. A digest of the protocol:
(§1)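 Cells seeded at 5×10^3/well in RPMI-1640 with 10% FBS, compound added next day at 0.5% DMSO final, 72 h at 37°C. CellTiter-Glo luminescence read; % inhibition normalised to 0.5% DMSO (0%) and 1% Tween 20 (100%), plotted against concentration in nM; mean ± SEM, N=2.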

Another experiment deals with 22RV1 cells. Particulars: Homo sapiens, 72 h culture, mean of N=2. A digest of the protocol: as §1
A further experiment relates to vCap cells. Particulars: Homo sapiens, 72 h culture, mean of N=2. A digest of the protocol: as §1
The test system of another experiment is OPM-2 cells. Particulars: Homo sapiens, 72 h culture, mean of N=2. In a few lines: as §1

For `CC(=O)N1Cc2cc(C3CCN(c4cccc5c4CN(C4CCC(=O)NC4=O)C5=O)CC3)cc(N3CCCc4cc(-c5cnn(C)c5)c(C(F)F)cc43)c2C1` (stereo not shown) [Compound 2080, 3-[4-(4-{2-acetyl-7-[7-(difluoromethyl)-6-(1-methylpyrazol-4-yl)-3,4-dihydro-2H-quinolin-1-yl]-1,3-dihydroisoindol-5-yl}piperidin-1-yl)-1-oxo-3H-isoindol-2-yl]piperidine-2,6-dione], the IC50 stood at 1.16 nM in the experiment with MM1S cells, 3.97 nM in the experiment on 22RV1 cells, 1.17 nM in the experiment on vCap cells and 0.52 nM in the experiment with OPM-2 cells.
Regarding `CC#CC(=O)N1CCC(c2cc3c(c(N4CCCc5cc(-c6cnn(C)c6)c(C(F)F)cc54)c2)CN(C(C)=O)C3)CC1` [Compound 1359], the concentration for half-maximal inhibition (IC50) in the experiment on 22RV1 cells is 545 nM; in the experiment with OPM-2 cells, 15 nM.
Turning to `C=CS(=O)(=O)N1CCC(n2c([C@@H]3CCCC(=O)N3c3ccc(F)c(F)c3)nc3cc(-c4c(C)noc4C)ccc32)CC1` [Compound 1373, (S)-1-(3,4-difluorophenyl)-6-(5-(3,5-dimethylisoxazol-4-yl)-1-(1-(vinylsulfonyl)piperidin-4-yl)-1H-benzo[d]imidazol-2-yl)piperidin-2-one], the IC50 was 44 nM in the experiment with MM1S cells, 208 nM in the experiment on 22RV1 cells, 51 nM with vCap cells and 12 nM in the experiment on OPM-2 cells.
With `CC(=O)N1Cc2cc([C@H]3CC[C@H](NC(=O)/C=C/CN(C)C)CC3)cc(N3CCCc4cc(-c5cnn(C)c5)c(C(F)F)cc43)c2C1` [Compound 1356], the 50% inhibitory concentration (IC50) in the experiment on MM1S cells is 464 nM; with 22RV1 cells, 4270 nM; with OPM-2 cells, 53 nM.
For `CC(=O)N1Cc2cc(C3CCN(Cc4ccc(COc5cccc6c5CN(C5CCC(=O)NC5=O)C6=O)cc4)CC3)cc(N3CCCc4cc(-c5cnn(C)c5)c(C(F)F)cc43)c2C1` (stereo not shown) [Compound 2006, 3-[4-({4-[(4-{2-acetyl-7-[7-(difluoromethyl)-6-(1-methylpyrazol-4-yl)-3,4-dihydro-2H-quinolin-1-yl]-1 ,3-dihydroisoindol-5-yl}piperidin-1-yl)methyl]phenyl}methoxy)-1-oxo-3H-isoindol-2-yl]piperidine-2,6-dione], the IC50 is 0.27 nM with MM1S cells, 0.47 nM in the experiment on 22RV1 cells, 0.4 nM with vCap cells and 0.19 nM in the experiment with OPM-2 cells.
As for `CC(=O)N1Cc2cc([C@H]3CC[C@@H](NC(=O)CCl)CC3)cc(N3CCCc4cc(-c5cnn(C)c5)c(C(F)F)cc43)c2C1` [Compound 1361], the half-maximal inhibitory concentration (IC50) with MM1S cells turned out to be 2 nM; in the experiment on 22RV1 cells, 106 nM; in the experiment on OPM-2 cells, 1 nM.
As to `C=CS(=O)(=O)N1CCC(n2nc(N3CCCc4cc(-c5cnn(C)c5)c(C#N)cc43)c3c2CCN(C(=O)NC)C3)CC1` [Compound 1379, 3-[7-cyano-6-(1-methylpyrazol-4-yl)-3,4-dihydro-2H-quinolin-1-yl]-1-[1-(vinylsulfonyl)piperidin-4-yl]-N-methyl-4H,6H,7H-pyrazolo[4,3-c]pyridine-5-carboxamide], the IC50 in the experiment with MM1S cells came out at 5 nM; in the experiment on 22RV1 cells, 28 nM; in the experiment on vCap cells it was 8 nM; with OPM-2 cells, 5 nM.
`C=CS(=O)(=O)N[C@H]1CC[C@@H](n2nc(N3CCCc4cc(-c5cnn(C)c5)c(C(F)F)cc43)c3c2CCN(C(C)=O)C3)CC1` [Compound 1388, N-((1s,4s)-4-(5-acetyl-3-(7-(difluoromethyl)-6-(1-methyl-1H-pyrazol-4-yl)-3,4-dihydroquinolin-1(2H)-yl)-4,5,6,7-tetrahydro-1H-pyrazolo[4,3-c]pyridin-1-yl)cyclohexyl)ethenesulfonamide]: the IC50 was determined as 3 nM in the experiment with MM1S cells, 15 nM in the experiment with 22RV1 cells, 2 nM in the experiment on vCap cells and 1 nM in the experiment on OPM-2 cells.
Taken in the same sequence, the figures for `C=CS(=O)(=O)N[C@H]1CC[C@H](n2nc(N3CCCc4cc(-c5cnn(C)c5)c(C(F)F)cc43)c3c2CCN(C(=O)NC)C3)CC1` [Compound 1374, 3-(7-(difluoromethyl)-6-(1-methyl-1H-pyrazol-4-yl)-3,4-dihydroquinolin-1(2H)-yl)-N-methyl-1-((1r,4r)-4-(vinylsulfonamido)cyclohexyl)-1,4,6,7-tetrahydro-5H-pyrazolo[4,3-c]pyridine-5-carboxamide] were 1 nM, 11 nM, 1 nM and 1 nM.
In the case of `C=C(F)C(=O)N1CCC(c2cc3c(c(N4CCCc5cc(-c6cnn(C)c6)c(C(F)F)cc54)c2)CN(C(C)=O)C3)CC1` [Compound 1365], the concentration for half-maximal inhibition (IC50) with 22RV1 cells stood at 3350 nM; with OPM-2 cells, 30 nM.
Regarding `CC(=O)N1Cc2cc(C3CCN(CC4CCN(CCOc5cccc6c5CN(C5CCC(=O)NC5=O)C6=O)CC4)CC3)cc(N3CCCc4cc(-c5cnn(C)c5)c(C(F)F)cc43)c2C1` (stereo not shown) [Compound 2054], the IC50 in the experiment on MM1S cells stood at 0.33 nM; in the experiment on 22RV1 cells, 0.84 nM; in the experiment on vCap cells, 0.26 nM.
For the compound `CNC(=O)N1CCc2cc(C3CCN(CCc4ccc(COc5cccc6c5CN(C5CCC(=O)NC5=O)C6=O)cc4)CC3)cc(N3CCCc4cc(-c5cnn(C)c5)c(C(F)F)cc43)c2C1` (stereo not shown) [Compound 2066, 8-(7-(difluoromethyl)-6-(1-methyl-1H-pyrazol-4-yl)-3,4-dihydroquinolin-1(2H)-yl)-6-(1-(4-(((2-(2,6-dioxopiperidin-3-yl)-1-oxoisoindolin-4-yl)oxy)methyl)phenylethyl)piperidin-4-yl)-N-methyl-3,4-dihydroisoquinoline-2(1H)-carboxamide], the IC50 is 0.23 nM in the experiment with MM1S cells and 0.08 nM in the experiment on 22RV1 cells.
For `CC(=O)N1Cc2cc(C3CCN(CCN4CCC(CNc5ccc6c(c5)CN(C5CCC(=O)NC5=O)C6=O)CC4)CC3)cc(N3CCCc4cc(-c5cnn(C)c5)c(C(F)F)cc43)c2C1` (stereo not shown) [Compound 2063], in that order: 0.28 nM and 0.33 nM.
Taken in the same sequence, the figures for `CC(=O)N1Cc2cc(C3CCN(CCC4CCN(c5ccc6c(c5)CN(C5CCC(=O)NC5=O)C6=O)CC4)CC3)cc(N3CCCc4cc(-c5cnn(C)c5)c(C(F)F)cc43)c2C1` (stereo not shown) [Compound 2069] were 0.36 nM and 0.38 nM.
For the compound `CC(=O)N1Cc2cc(C3CCN(CCN4CCN(c5ccc6c(c5)CN(C5CCC(=O)NC5=O)C6=O)CC4)CC3)cc(N3CCCc4cc(-c5cnn(C)c5)c(C(F)F)cc43)c2C1` (stereo not shown) [Compound 2070], the IC50 in the experiment on MM1S cells is 0.34 nM; in the experiment on 22RV1 cells, 0.42 nM.
`C=CS(=O)(=O)N1CCC(c2cc3c(c(N4CCCc5cc(-c6cnn(C)c6)c(C(F)F)cc54)c2)CN(C(C)=O)CC3)CC1` [Compound 1368]: the IC50 in the experiment on 22RV1 cells was 1390 nM; in the experiment with OPM-2 cells it was 168 nM.
Turning to `CC(=O)N1Cc2cc(C3CCN(CCN4CCC(COc5ccc6c(c5)CN(C5CCC(=O)NC5=O)C6=O)CC4)CC3)cc(N3CCCc4cc(-c5cnn(C)c5)c(C(F)F)cc43)c2C1` (stereo not shown) [Compound 2071], the IC50 in the experiment with MM1S cells is 0.31 nM; in the experiment on 22RV1 cells it was 0.5 nM.
For `CC(=O)N1Cc2cc(C3CCN(CC4CCN(CCNc5ccc6c(c5)CN(C5CCC(=O)NC5=O)C6=O)CC4)CC3)cc(N3CCCc4cc(-c5cnn(C)c5)c(C(F)F)cc43)c2C1` (stereo not shown) [Compound 2062], the IC50 in the experiment with MM1S cells was determined as 0.04 nM; in the experiment with 22RV1 cells it was 0.24 nM; in the experiment on vCap cells it was 0.06 nM.
With `CC(=O)N1Cc2cc([C@H]3CC[C@@H](NC(=O)/C=C/CN(C)C)CC3)cc(N3CCCc4cc(-c5cnn(C)c5)c(C(F)F)cc43)c2C1` [Compound 1358], the figures for the 50% inhibitory concentration (IC50) in the experiment on MM1S cells, in the experiment on 22RV1 cells and in the experiment with OPM-2 cells were 598 nM, 4940 nM and 39 nM, respectively.

Broadly, the IC50 is the concentration that inhibits the measured activity by half. Low values mean greater potency, high ones weaker potency.
